In ChEMBL document CHEMBL1131898, “4-Pyridin-5-yl-2-(3,4,5-trimethoxyphenylamino)pyrimidines: potent and selective inhibitors of ZAP 70” (Bioorg Med Chem Lett, 1999) one finds IC50 data, which are given here for 4 molecules.

SMILES strings stand for the structures.

Experiment [1] concerns the target Tyrosine-protein kinase CSK (Homo sapiens, UniProt P41240). In words: Inhibition of csk tyrosine kinase.
Experiment [2] deals with Epidermal growth factor receptor (Homo sapiens, UniProt P00533). Nature of the experiment: Inhibition of Epidermal growth factor receptor (EGFr).
The target in the next experiment is Protein kinase C (PKC). Nature of the experiment: Inhibition of protein kinase C (PKC). The class given is protein assay.
The target of experiment [3] is Tyrosine-protein kinase Lck (Homo sapiens, UniProt P06239). In words: Inhibition of p56 lck tyrosine kinase.
Experiment [4] addresses T1, Tyrosine-protein kinase ZAP-70 (Homo sapiens, UniProt P43403).
T1 sequence (P43403 whole entry): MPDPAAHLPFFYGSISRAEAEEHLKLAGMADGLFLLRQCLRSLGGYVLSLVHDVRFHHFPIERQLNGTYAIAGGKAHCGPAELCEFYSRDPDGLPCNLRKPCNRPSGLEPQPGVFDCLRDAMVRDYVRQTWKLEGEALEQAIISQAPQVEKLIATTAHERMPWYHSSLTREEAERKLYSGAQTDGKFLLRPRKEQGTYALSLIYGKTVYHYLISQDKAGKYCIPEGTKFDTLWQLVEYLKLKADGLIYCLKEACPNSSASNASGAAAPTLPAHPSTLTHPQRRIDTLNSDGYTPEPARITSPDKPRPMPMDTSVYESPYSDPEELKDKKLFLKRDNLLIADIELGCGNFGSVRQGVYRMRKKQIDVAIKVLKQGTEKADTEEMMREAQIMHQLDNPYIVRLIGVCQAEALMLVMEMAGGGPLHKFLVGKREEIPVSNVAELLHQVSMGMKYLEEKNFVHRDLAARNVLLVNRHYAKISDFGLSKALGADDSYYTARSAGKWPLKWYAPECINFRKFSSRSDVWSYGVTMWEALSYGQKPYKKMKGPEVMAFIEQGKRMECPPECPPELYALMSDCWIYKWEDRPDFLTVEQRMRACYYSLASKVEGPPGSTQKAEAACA
Nature of the experiment: Inhibition of Zeta-chain (TCR) associated protein kinase 70 kDa phosphorylation of polyGly-Tyr.

Chain of Tyrosine-protein kinase Lck (P06239 whole entry): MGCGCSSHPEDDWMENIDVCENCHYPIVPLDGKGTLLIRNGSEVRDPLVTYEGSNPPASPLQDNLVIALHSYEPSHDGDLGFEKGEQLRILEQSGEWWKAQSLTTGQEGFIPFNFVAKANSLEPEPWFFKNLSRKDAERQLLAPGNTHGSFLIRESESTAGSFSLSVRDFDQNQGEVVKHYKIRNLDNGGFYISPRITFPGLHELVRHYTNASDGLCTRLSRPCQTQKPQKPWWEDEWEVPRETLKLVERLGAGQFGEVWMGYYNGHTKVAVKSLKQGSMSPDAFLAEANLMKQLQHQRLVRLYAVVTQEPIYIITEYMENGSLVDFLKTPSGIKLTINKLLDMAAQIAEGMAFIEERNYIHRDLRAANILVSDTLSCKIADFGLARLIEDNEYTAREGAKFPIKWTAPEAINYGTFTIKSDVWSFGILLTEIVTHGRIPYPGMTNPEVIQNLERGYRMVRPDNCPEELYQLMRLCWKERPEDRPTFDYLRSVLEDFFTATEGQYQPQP
Chain of Tyrosine-protein kinase CSK (P41240 whole entry): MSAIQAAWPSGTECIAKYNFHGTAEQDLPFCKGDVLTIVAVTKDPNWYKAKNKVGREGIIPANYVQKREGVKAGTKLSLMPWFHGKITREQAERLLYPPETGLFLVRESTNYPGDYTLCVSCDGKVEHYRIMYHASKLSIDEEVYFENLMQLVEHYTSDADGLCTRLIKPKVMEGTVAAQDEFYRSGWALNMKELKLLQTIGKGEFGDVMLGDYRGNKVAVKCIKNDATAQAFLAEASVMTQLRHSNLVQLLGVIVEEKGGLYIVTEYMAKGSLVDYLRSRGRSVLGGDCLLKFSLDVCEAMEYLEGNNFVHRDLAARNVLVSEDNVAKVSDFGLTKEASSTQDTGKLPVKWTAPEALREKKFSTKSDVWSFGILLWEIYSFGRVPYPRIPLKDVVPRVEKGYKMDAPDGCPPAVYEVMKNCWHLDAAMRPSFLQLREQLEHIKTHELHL
Chain of Epidermal growth factor receptor (P00533 whole entry): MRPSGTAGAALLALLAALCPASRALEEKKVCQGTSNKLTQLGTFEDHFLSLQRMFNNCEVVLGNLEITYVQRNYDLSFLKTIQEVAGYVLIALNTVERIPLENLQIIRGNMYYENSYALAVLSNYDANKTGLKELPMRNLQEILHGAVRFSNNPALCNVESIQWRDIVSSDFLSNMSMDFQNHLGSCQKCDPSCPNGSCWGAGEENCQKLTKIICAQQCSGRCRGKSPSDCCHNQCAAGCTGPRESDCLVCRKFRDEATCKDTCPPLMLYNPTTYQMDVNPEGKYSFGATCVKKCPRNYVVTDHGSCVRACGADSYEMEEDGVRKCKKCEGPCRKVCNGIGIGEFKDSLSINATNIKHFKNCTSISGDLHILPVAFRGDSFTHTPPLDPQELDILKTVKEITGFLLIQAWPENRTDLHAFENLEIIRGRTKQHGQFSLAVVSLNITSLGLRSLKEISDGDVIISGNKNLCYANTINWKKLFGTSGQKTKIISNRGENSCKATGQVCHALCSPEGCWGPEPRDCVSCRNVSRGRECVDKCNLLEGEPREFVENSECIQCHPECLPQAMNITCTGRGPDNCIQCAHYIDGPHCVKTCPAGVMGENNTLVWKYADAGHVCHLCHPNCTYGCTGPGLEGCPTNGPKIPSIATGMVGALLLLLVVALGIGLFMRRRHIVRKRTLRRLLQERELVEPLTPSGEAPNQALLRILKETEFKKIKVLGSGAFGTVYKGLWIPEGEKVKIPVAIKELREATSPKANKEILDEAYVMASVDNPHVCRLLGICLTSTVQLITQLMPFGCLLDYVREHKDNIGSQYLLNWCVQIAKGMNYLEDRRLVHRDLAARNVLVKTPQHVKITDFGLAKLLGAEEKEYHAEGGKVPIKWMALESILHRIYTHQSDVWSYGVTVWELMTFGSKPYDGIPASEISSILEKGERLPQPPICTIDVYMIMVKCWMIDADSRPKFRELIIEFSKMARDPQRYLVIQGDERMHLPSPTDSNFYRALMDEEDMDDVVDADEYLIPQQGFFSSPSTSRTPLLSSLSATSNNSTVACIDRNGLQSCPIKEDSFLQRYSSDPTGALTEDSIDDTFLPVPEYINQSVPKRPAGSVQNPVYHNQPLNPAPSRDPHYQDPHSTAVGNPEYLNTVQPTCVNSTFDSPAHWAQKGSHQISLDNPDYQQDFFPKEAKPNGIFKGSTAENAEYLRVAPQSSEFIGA

`COc1cc(Nc2nccc(-c3ccc(NCCN)nc3)n2)cc(OC)c1OC`: the half-maximal inhibitory concentration (IC50) in experiment [1] was over 10000 nM; in experiment [2], 5100 nM; against Protein kinase C (PKC), 150 nM; in experiment [3] it was 1200 nM.

In the case of `CC[C@H]1CN(c2ccc(-c3ccnc(Nc4cc(OC)c(OC)c(OC)c4)n3)cn2)CCN1`, the 50% inhibitory concentration (IC50) at Protein kinase C (PKC) was 2874 nM; in experiment [3], 2200 nM; in experiment [4], 8 nM.

On to `COc1cc(Nc2nccc(-c3cccnc3)n2)cc(OC)c1OC`, for which the half-maximal inhibitory concentration (IC50) at Protein kinase C (PKC) turned out to be 1400 nM; in experiment [3], 1100 nM; in experiment [4], 1900 nM.

`COc1cc(Nc2nccc(-c3ccc(N4CCNCC4)nc3)n2)cc(OC)c1OC`: the IC50 in experiment [1] was over 10000 nM; against Protein kinase C (PKC), 1300 nM; in experiment [3], 3300 nM; in experiment [4], 54 nM.

As usually defined, the IC50 is the point on the concentration scale where inhibition reaches its midpoint. Low readings indicate higher potency, high ones lower potency.
